From US7271239B2, “D-isomers of antimicrobial peptide” (The Research Foundation of State University of New York, priority 2004, dated 2007)

Columns and labels:
[1] = system: C. albicans strain DIS; assay type: in vivo, mice ICR strain
Procedure: A previously described protocol was adopted (14). Mice were immunosuppressed with two subcutaneous injections of prednisolone at a dose of 100 mg/kg body weight 1 day prior to and 3 days after the infection with C. albicans. Tetracycline hydrochloride in drinking water at a concentration of 0.83 mg/ml was given to mice beginning 1 day before infection. Mice were anesthetized by intramuscular injection with 60 μl of 2 mg/ml chlorpromazine chloride, using a dose of 10 mg/kg body weight of mice. While under anesthesia, a small cotton ball soaked in 0.1 ml aliquot of C. albicans cell suspension (2.5×10^6 cells) was used to swab the entire oral cavity of the anesthetized mice.
Visual evaluation was done by carefully extending the tongue of randomly picked mice using blunt-end forceps, while the mice were under isoflurane sedation. Presence of thick, white curd-like patches indicated candidal infection. At day 3 post-infection, all animals were examined for evidence oral candidal infection by microbiological evaluation. The entire oral cavity of anesthetized mice was swabbed using a sterile calcium alginate disposable swab (Fisher Scientific), dampened with sterile PBS. Cells were then released from the swab into 1 ml PBS. Serial 10-fold dilutions were plated on SDA plates supplemented with streptomycin (30 μg/ml). Plates were incubated for 24 h at 37° C. and yeast cell count expressed as log10 of cfu/ml.
Tongues from sacrificed animals were used for histological studies. They were fixed in 10% formalin and embedded in paraffin. Serial five-μm sections were cut from the paraffin block and stained with periodic acid-Schiff (PAS) reagent for detection of C. albicans.
Mice were randomly divided into various treatment groups with 8 mice per group. Antifungal agents were employed on an equimolar basis, and included amphotericin B (1.75%), clotrimazole (0.66%), MUC7 12-mer (RKSYKCLHKRCR—SEQ ID NO:1) (L; 3%), MUC7 12-mer (D; 3%), MUC7 12-mer (D; 3%) containing Na2EDTA (1 mM), MUC7 12-mer (L; 3%) containing protease inhibitor cocktail (PIC) (1%), and Hsn5 12-mer (AKRHHGYKRKFH—SEQ ID NO:2) (3%). They were all emulsified in Pluronic F127, (20% lipoil), a polymer of polyoxyethylene and polyoxypropylene (non-ionic surfactant). Animals were anesthetized using isoflurane; while sedated, about 30 to 40 μl of the antifungal emulsion was applied on the tongue and spread throughout oral cavity. The treated mice were under sedation for additional 5 min under isoflurane. Animals were not given access to food and water for 1 h following the application.
Fungal burden was re-evaluated quantitatively after 3 and 6 days of treatment, using the same technique as the one used for initial evaluation. Randomly picked mice from each group was subjected to histopathological evaluation, after 6 days of treatment. Blood from randomly sacrificed mice from each treatment group was analyzed for any changes in the serum liver (AST, ALT, ALP etc.) and kidney enzymes (BUN, glucose, creatinine etc) levels.
Statistical analysis was performed using a significance level set at 0.05 (α) and a significant group size (n=8). Initial infection and antifungal treatment efficacy were determined using analysis of variance (ANOVA), expressed as log10 cfu, and Scheffe's multiple comparison test was used to determine the differences between various treatment groups.

[2] = system: C. albicans DIS; experiment: Killing assay in whole human saliva; conditions: saliva, no peptide
Procedure: FIG. 1. Candidacidal activity of MUC7 12-mer-L, MUC7 12-mer-D, Hsn5 12-mer, and Magainin-II in whole human saliva (WHS). Each peptide at final concentration of 25, 50, and 100 μM was incubated with C. albicans (DIS isolate at 1×10^5 cells/ml) and 20 μl of clarified or unclarified saliva (SL; hatched bars), saliva containing Protease inhibitor cocktail (PIC) (SL+PIC; filled bars), or saliva containing ethylenediamine tetraacetic acid (EDTA) (SL+EDTA; clear bars) at 37° C. for 1.5 h. At the end of incubation, the samples were diluted 20-fold and aliquots plated on SDA. The colony forming units (CFU) were counted after 24 h of incubation. The loss of C. albicans viability was determined by the equation (1−CFU of the test group/CFU of the control group)×100%. The data represent three individual trials, and in each trial the sample was duplicated; the error bars represent standard deviation.
FIG. 4. […] Stimulated whole saliva was collected from 5 healthy subjects. Peptides (50 μM) were incubated with C. albicans cells (1×10^5) in the each individual saliva containing PIC (SL+PIC) at 37° C. for 1.5 hr and the loss of the cell viability was determined. Values represent the mean±S.D. (n=5).
Killing assays in saliva. Unclarified saliva (unstimulated whole saliva) was collected from five healthy individuals during the fasting. Clarified saliva was obtained by passing the unclarified saliva through the 0.2 μm pore size sterile syringe filter (VWR scientific products, West Chester, Pa.). Candidacidal activity assays were performed as described previously (4), except the phosphate buffer was substituted with saliva. […] Saliva without peptides was a blank control. After incubation at 37° C. for 1.5 h, the reactions were diluted 20-fold in PB and aliquots (50 μl, ˜120 cells) of each sample were plated on SDA. The plates were incubated at 37° C. for 1 day aerobically and the number of colony-forming units (CFUs) was counted. Percentage of killing was calculated as (1−amount of viable cells in the test group)/(amount of viable cells in the control group)×100%.

[3] = Experimental study I, topical oral application

SMILES: Clc1ccccc1C(c1ccccc1)(c1ccccc1)n1ccnc1 [Clotrimazole, 1-[o-chloro-a,a-diphenylbenzyl]-imidazole]
- Log10 cfu/ml (Mean + S.D.), Initial infection ([1]; Experimental study I, day 3 post-infection, before treatment (baseline)): 4.50 ± 0.20 Log10 cfu/ml
- Log10 cfu/ml (Mean + S.D.), 3-days treatment [1, 3]: 1.58 ± 1.36 Log10 cfu/ml
- Log10 cfu/ml (Mean + S.D.), 6-days treatment [1, 3]: 0.53 ± 0.99 Log10 cfu/ml
- histopathological finding in tongue sections (C. albicans, PAS staining) ([1]; end of treatment): healthy tissue and absence of visible microorganisms

SMILES: O=C(O)CN(CCN(CC(=O)O)CC(=O)O)CC(=O)O [EDTA, ethylenediamine tetraacetic acid]
- effect of additive alone on C. albicans cell viability [2]: very little or no effect
